Test results reported in patent US5610160A, “Topical 5-fluorouracil prodrug composition and method” (priority 1994, dated 1997).
In brackets after ≈: the same amount, converted by molar mass. Where two headings read alike, the source gives them in different places.

Legend:
[1] = 22° C.; Buur et al (1986); compound 11 from Buur et al (1987); cited from earlier work
[2] = test system: skin malignancies; conditions: topical, cited from earlier work
[3] = cited from earlier work
[4] = Diffusion cell experiments: delivery of 5-FU through hairless mouse skin; type: in vitro ADME; conditions: for Ji, flux of 5-FU through the skin: from suspensions of prodrugs in IPM, hairless mouse skin; for Cs, amount of 5-FU in the skin: leached from hairless mouse skin in 24 hours subsequent to application of prodrug in vehicle for 48 hours; for Jj, flux of theophylline through the skin after application of the prodrug/formulation (relative damage): theophylline from suspension in PG
Experimental: The diffusion cell experiments were conducted as described by Sloan et al in J. Invest.
^b Flux in mg/cm^2 hour of 5FU from suspensions of prodrugs in
^c Amount of 5FU in mg leached from hairless mouse skin in 24 hours
subsequent to application of prodrug in vehicle for 48 hours.
^d Flux in mg/cm^2 hour of theophylline from suspension in PG.

[5] = Solubility of prodrug in isopropyl myristate (IPM); conditions: for solubility: isopropyl myristate, organic solvent or mixture
Experimental: The results from the determination of the physicochemical properties are recorded in the tables as CIPM (the saturated solubility of the prodrug in the isopropyl myristate (IPM) vehicle/formulation in which the prodrug was applied to the mouse skins), K (the partition coefficients of the prodrug between IPM and a pH 4.0 acetate buffer) and Cw (the solubility of the prodrug in pH 4.0 acetate buffer calculated from the partition coefficient and the IPM solubility).

[6] = 37° C., 80% human plasma; Buur et al (1986); compound 11 from Buur et al (1987); cited from earlier work
[7] = shake-flask, brief shaking, IPM phase analyzed immediately; conditions: 23 ± 1 °C
[8] = 37° C., 0.05 M phosphate buffer pH 7.4; Buur et al (1986); compound 11 from Buur et al (1987); cited from earlier work
[9] = not told; conditions: 22 °C; cited from earlier work
[10] = Partition coefficient between IPM and pH 4.0 acetate buffer; type: physicochemical; conditions: 23 ± 1° C.
From the text: ^a Partition coefficient between IPM and pH 4.0 acetate buffer at 23

[11] = 22° C., J. Pharm. Sci. 75, 522, Buur et al (1986), compound 11 from Int. J. Pharm. 36, 41 (1987)

SMILES: O=c1[nH]cc(F)c(=O)[nH]1 [Compound 5-FU, 5-fluorouracil]
- Cw, solubility at pH 4.0 acetate buffer [1]: 11.1 mg/ml
- treating superficial lesions ([2]; actinic keratoses and basal cell carcinomas): successful
- treating deeper lesions or actinic keratoses of the extremities [2]: ineffective
- log K, octanol/pH 4.0 acetate buffer ([3]; octanol/acetate buffer, pH 4): -0.83
- Ji, flux of 5-FU through the skin [4]: 0.0311 mg/cm^2 hour
- Cs, amount of 5-FU in the skin [4]: 0.48 mg
- Jj, flux of theophylline through the skin after application of the prodrug/formulation (relative damage) [4]: 0.215 mg/cm^2 hour
- solubility [5]: 6.4 µg/mL (≈ 0.0492 mM)

SMILES: CCCCCCOC(=O)n1cc(F)c(=O)[nH]c1=O [Compound 11]
- Cw, solubility at pH 4.0 acetate buffer [1]: 1.5 mg/ml
- Half-life, 80% Plasma [6]: 2.0 min
- log partition isopropyl myristate / pH 4.0 acetate buffer [7]: 31.1 concentration ratio
- Half-life, Buffer [8]: 9.17 h
- log K, octanol/pH 4.0 acetate buffer [3, 11]: 2.04
- Ji, flux of 5-FU through the skin [4]: 0.195 mg/cm^2 hour
- Cs, amount of 5-FU in the skin [4]: 1.38 mg
- Jj, flux of theophylline through the skin after application of the prodrug/formulation (relative damage) [4]: 0.321 mg/cm^2 hour
- log partition octanol / pH 4.0 acetate buffer [9]: 2.04 log10 concentration ratio
- solubility [5]: 8700 µg/mL (≈ 33.7 mM)
- K, partition coefficient between IPM and pH 4.0 acetate buffer [10]: 31.1

SMILES: CCCCOC(=O)n1cc(F)c(=O)[nH]c1=O [Compound 10]
- Cw, solubility at pH 4.0 acetate buffer [1]: 5.9 mg/ml
- Half-life, 80% Plasma [6]: 3.1 min
- log partition isopropyl myristate / pH 4.0 acetate buffer [7]: 1.46 concentration ratio
- Half-life, Buffer [8]: 9.17 h
- log K, octanol/pH 4.0 acetate buffer [3, 11]: 0.89
- Ji, flux of 5-FU through the skin [4]: 0.284 mg/cm^2 hour
- Cs, amount of 5-FU in the skin [4]: 0.54 mg
- Jj, flux of theophylline through the skin after application of the prodrug/formulation (relative damage) [4]: 0.321 mg/cm^2 hour
- log partition octanol / pH 4.0 acetate buffer [9]: 0.89 log10 concentration ratio
- solubility [5]: 7770 µg/mL (≈ 33.8 mM)
- K, partition coefficient between IPM and pH 4.0 acetate buffer [10]: 1.46

SMILES: CCOC(=O)n1cc(F)c(=O)[nH]c1=O [Compound 8]
- Cw, solubility at pH 4.0 acetate buffer [1]: 6.9 mg/ml
- Half-life, 80% Plasma [6]: 2.1 min
- log partition isopropyl myristate / pH 4.0 acetate buffer [7]: 0.0757 concentration ratio
- Half-life, Buffer [8]: 9.17 h
- log K, octanol/pH 4.0 acetate buffer [3, 11]: -0.17
- Ji, flux of 5-FU through the skin [4]: 0.770 mg/cm^2 hour
- Cs, amount of 5-FU in the skin [4]: 2.38 mg
- Jj, flux of theophylline through the skin after application of the prodrug/formulation (relative damage) [4]: 0.357 mg/cm^2 hour
- log partition octanol / pH 4.0 acetate buffer [9]: -0.17 log10 concentration ratio
- CIPM, equivalent mg of 5FU/ml ([5]; IPM, 23 ± 1° C., value in parentheses): 1.70 equivalent mg of 5FU/ml
- solubility [5]: 2640 µg/mL (≈ 13.1 mM)
- K, partition coefficient between IPM and pH 4.0 acetate buffer [10]: 0.0757
